pIC50: −log10 of the molar value.

The % inhibition is the percentage by which the read-out fell short of the control. In general, GI50 refers to the concentration that inhibits growth by half. As usually defined, the pIC50 is the negative decadic logarithm of the IC50, by convention in mol/L.

Test [1] relates to Jak, Stat3 and c-raf. Description: Western blot of phosphorylated Jak, Stat3 and c-raf in Panc-1 cells. The class given is cell-based, human. Particulars: IC50 dosage (0.8 uM). For orientation: In western blotting, separated proteins are transferred to a membrane and probed.
Experimental: The drug treatment was terminated and the cells were rinsed twice with phosphate-buffered saline and lysed at 4° C. in a lysis buffer containing 50 mM Tris-HCl, pH7.5, 100 mM NaCl, 5 mM EDTA, 40 mM NaP2O7, 1% Triton X-100, 1 mM dithiothreitol, 200 μM Na3VO4, 100 uM phenylmethysufonyl fluoride, 2 μg/ml leupeptin, 4 μg/ml aprotinin and 0.7 μg/ml pepstatin. The insoluble protein lysate were removed by centrifugation for 10 minutes at 12,000 rpm. Fifty micrograms of protein lysate was resolved using 10% SDS-polyacryamide gel electrophoresis (PAGE) and then subjected to western blot anaylsis. Western blots were performed with antibodies specific for phosphor- and Jak, Stat3 and c-raf proteins. […] The protein bands were then visualized with the Enhanced Chemiluminescence Plus (ECL Plus) detection system (Amersham).
The proteins activation was detected by western blot.
Cell lysate (50 μg) of each sample was separated in 10% SDS-PAGE followed by immuno-blotting with anti-jak1 anti-jak2, anti-jak3, anti-Stat3 and c-raf antibodies to detect the phosphorylated form of jak1, jak2, jak3, Stat3 and c-raf.
Test [2] deals with HepG2-resistant (HepG2-R). The experiment in a line: Hollow fiber assay, HepG2-resistant. It counts as in vivo, nude mice. The note with it: up to 14 days. The protocol:
The hollow fiber assay (HFA) was developed by the NCI as a high-throughput, preliminary in vivo screening assay for the evaluation of anti-cancer agents. Human liver cancer cell lines HepG2 and HepG2-resistant (HepG2-R) were in vitro cultured inside hollow fibers for a short term (48 hours), followed by in vivo implantation at s.c. sites of the nude mice. Mice were treated with negative control (0.5% CMC), positive control (10 mg/kg 5-Fluorouracil) and cucurbitacin B (0.2 mg/kg) for up to 14 days. Then the fibers were excised and analyzed for cell viability by MTT assay. The efficacies of cucurbitacin B against HepG2 and HepG2-R were expressed as the percentage of the results obtained in the negative control group.

In test [3] the test system is Human liver cancer cell lines HepG2. Description: MTT cytotoxicity assay, matrix combination of CuB and Sb on liver cancer cells. It counts as cell-based. Particulars: HepG2, 2 days, Sb 0 μM. The protocol: Human liver cancer cell lines HepG2 was purchased from American Type Culture Collection (ATCC, Manassas, Va., USA). The cells were cultured in RPMI 1640 medium supplemented with 5% (v/v) fetal bovine serum (FBS) and 100 units/ml penicillin and streptomycin (Invitrogen Life Technologies) in a humidified 5% CO2 atmosphere at 37° C.
A total of 1×10^4 cells were seeded into a 96-well plate for 24 hours prior to drug treatment. They were then treated with different dosages (a multiple of 20-fold of IC50 values) of CuB or Sb for 48 hours. After the treatment, 20 μl of MTT (5 mg/ml) was added to each well and incubated for 4 hrs. Then the medium was discarded and 100 μl of dimethyl sulfoxide was added. The absorbance at 570 nm was then measured by using FLUOstar OPTIMA equipment (BMG, LABTECH GmbH, Germany). The percentage of inhibition against different dosages of CuB or Sb were plotted using the Prism software and the 50% inhibition concentration (IC50) were obtained.
The cells were then treated for 2 days and the % inhibition of growth is determined.
The excess over Bliss additivism may be calculated using the following formula and shown in Table 4: • Bliss Additivism: Combined response=CuB+Sb−(CuB)(Sb) where each effect is expressed as fractional inhibition between 0 and 1 • Excess over additivism=observed response−combined response
On the technique in general: Tetrazolium assays rely on reduction of a dye to a coloured formazan, in cell work by metabolically active cells.

Test [4] relates to human MDA-MB-231 breast cancer cells. The experiment in a line: Orthotopic human breast cancer model in nude mice. The class given is in vivo. The protocol: One million human MDA-MB-231 breast cancer cells/Matrigel (vol 1:1) were inoculated isotopically into the breasts of nude mice. The mice received intraperitoneal injections of 1 mg/ml of cucurbitacin B 3 times a week starting on the day after inoculation of the cells. The longitudinal and the transverse diameter, and the height were measured once a week. The volume was calculated by multiplying these elements, and the relative tumor size was determined by dividing the product by the initial volume. After 6 weeks, the mice were sacrificed to weigh the dissected tumors. At that moment, blood was taken for analysis, where organs and tumors were inspected, dissected, fixed and stained with hematoxylin-eosin and/or Ki-67. Data were expressed as mean±SD. Statistical analysis was performed by student's t test.
Six weeks after i.p. treatment with either vehicle or cucurbitacin B 1 mg/kg three times a week, mice were euthanized and tumors were observed and weighed. Results represented the mean and SD of 9 treated and 9 control tumors. Statistical analysis was performed by student's t test.

Test [5] concerns Panc-1. The experiment in a line: MTT cell cytotoxicity assay, Panc-1. Particulars: Homo sapiens. The class given is cell-based. The protocol:
Three human pancreatic cancer cell lines (Panc-1, Panc 02.13, Panc 10.05) were purchased from American Type Culture Collection (ATCC, Manassas, Va., USA). Panc 02.13 and Panc 10.05 were grown in RPMI 1640 medium supplemented with 15% FBS, 4.5 g/L glucose, 10 mM HEPES, and 1.0 mM sodium pyruvate and 10 Units/ml human insulin; while PANC-1 was grown in Dulbecco's modified Eagle's medium supplemented with 10% FBS. They were maintained in a humidified 5% CO2 atmosphere at 37° C. and the culture medium was changed once in 2 days.
The cytotoxic effect of CuB on these three cancer cell lines were determined using MTT (3-[4,5-dimethylthiazol-2-yl]-2,5-diphenyl tetrazolium bromide) labeled cell cytotoxicity assay. A total of 1×10^4 cells were seeded into a 96-well plate for 24 hours prior to cucurbitacin B (CuB) treatment. They were then treated with different dosages of CuB for 48 hours. After the treatment, 20 μl of MTT (5 mg/ml) was added to each well and incubated for 4 hrs. Then the medium was discarded and 100 μl of dimethyl sulfoxide was added. The absorbance at 570 nm was then measured by FLUOstar OPTIMA equipment (BMG, LABTECH GmbH, Germany). The percentage of inhibition against different dosages of CuB were plotted using the Prism software and the 50% inhibition concentration (IC50) were obtained. […]

As for `CC(=O)OC(C)(C)/C=C/C(=O)[C@](C)(O)C1[C@H](O)C[C@@]2(C)C3CC=C4C(C[C@H](O)C(=O)C4(C)C)[C@]3(C)C(=O)C[C@]12C` (some centres unmarked) [cucurbitacin B], the “Jak and c-raf activation” value in test [1] (4 hours) is recorded as “inhibited significantly”. Besides, the Stat3 activation entry in test [1] (24 hours) is recorded as “inhibited significantly”. Further, the “Cell growth rate compared with the negative control group” value in test [2] (0.2 mg/kg p.o.) is recorded as “about 75%”. Also, the “cell growth in hollow fibers” value in test [2] (0.2 mg/kg, i.p., s.c. and p.o.) is recorded as “potently inhibited”. In addition, the “% inhibition” value in test [3] (CuB 0.056 μM) stood at 25.89%; in test [3] (CuB 0.167 μM), 41.93%; in test [3] (CuB 0.5 μM), 37.94%; in test [3] (CuB 1.5 μM), 39.01%; in test [3] (CuB 4.5 μM), 36.57%. Also, the “Excess over Bliss additivism” value in test [3] (CuB 0.056 μM), in test [3] (CuB 0.167 μM), in test [3] (CuB 0.5 μM), in test [3] (CuB 1.5 μM) and in test [3] (CuB 4.5 μM) was 0 each time. In addition, the “Excess over Highest Single Agent Model” value in test [3] (CuB 0.056 μM), in test [3] (CuB 0.167 μM), in test [3] (CuB 0.5 μM), in test [3] (CuB 1.5 μM) and in test [3] (CuB 4.5 μM) was 0 throughout. For the same compound, the “weight of dissected tumors vs vehicle treated mice” value in test [4] (i.p. 1 mg/kg three times a week, six weeks) was “weighed significantly less”. Further, the “growth of MDA-MB-231 tumors compared with control” value in test [4] (intraperitoneal 1 mg/kg 3 times a week, 6 weeks) is on record as 50.1%. Also, in test [5] (MTT, 48 hours), the concentration for 50% growth inhibition (GI50) came to 12.4 µM. In test [5] (read-out: IC50 (dose used for western blot)), the pIC50 is 6.10.
